We go through 11 molecules from US12275721B2, “Indazole carboxamides as kinase inhibitors” (BRISTOL-MYERS SQUIBB COMPANY, priority 2019, dated 2025).

Test [1] deals with T1, His-GST-TVMV-hRIPK1(1-324) (Homo sapiens, UniProt Q13546).
T1 construct: 1 nM His-GST-TVMV-hRIPK1(1-324) in FRET Buffer; made in house; host or cells: Spodoptera frugiperda (Sf9) insect cells, baculovirus (Bac-to-Bac)
T1 sequence (Q13546 1-324): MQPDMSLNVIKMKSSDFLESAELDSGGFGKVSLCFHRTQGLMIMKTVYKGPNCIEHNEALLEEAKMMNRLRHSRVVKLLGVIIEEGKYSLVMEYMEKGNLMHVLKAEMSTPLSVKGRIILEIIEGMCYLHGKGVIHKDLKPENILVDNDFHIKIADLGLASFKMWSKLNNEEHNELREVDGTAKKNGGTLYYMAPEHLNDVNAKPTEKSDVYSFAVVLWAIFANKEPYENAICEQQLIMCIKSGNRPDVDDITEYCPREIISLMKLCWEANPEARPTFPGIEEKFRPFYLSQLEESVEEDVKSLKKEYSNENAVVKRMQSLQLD
In words: RIPK1 HTRF Binding Assay. The conditions noted are these: HTRF probe displacement, 1 h at rt. How it is done:
A solution was prepared containing 0.2 nM Anti GST-Tb (Cisbio, 61GSTTLB), 90.6 nM probe and 1 nM His-GST-TVMV-hRIPK1(1-324) in FRET Buffer (20 mM HEPES, 10 mM MgCl2, 0.015% Brij-35, 4 mM DTT, 0.05 mg/mL BSA). Using Formulatrix Tempest, the detection antibody/enzyme/probe solution ([…]) was dispensed into wells of a 1536 plate (Black Low Binding Polystyrene 1536 Plate (Corning, 3724)) containing 10 nL of compounds of interest at appropriate concentration in DMSO. The plate was incubated at rt for 1 h. FRET was measured using the EnVision plate reader (Excitation: 340 nm, Emission: 520 nm/[…]). Total signal (0% inhibition) was calculated from wells containing 10 nL DMSO only.
Cloning and Baculovirus Expression of RIPK1 Construct
The coding region of human RIPK1(1-324) flanked by NdeI site at 5′ end and stop codon TGA and XhoI site at 3′ end was codon optimized and gene synthesized at GenScript USA Inc. (Piscataway, NJ) and subcloned into a modified pFastBac1 vector (Invitrogen, Carlsbad, CA) with N-terminal His-GST-TVMV tag, to generate His-GST TVMV-hRIPK1(1-324)-pFB. The fidelity of the synthetic fragment was confirmed by sequencing. Baculovirus was generated for the construct using the Bac-to-Bac baculovirus expression system (Invitrogen) according to the manufacturer's protocol. Briefly, recombinant bacmid was isolated from transformed DH10Bac E. coli competent cells 20 (Invitrogen) and used to transfect Spodoptera frugiperda (Sf9) insect cells (Invitrogen). Baculovirus was harvested 72 hours post transfection and a virus stock was prepared by infecting fresh Sf9 cells at a 1/1000 (v/v) ratio for 66 hours. For large scale protein production, Sf9 cells (Expression System, Davis, CA) grown in ESF921 insect medium (Expression System) at 2×10^6 cells/ml were infected with virus stock at a 1/100 (v/v) ratio for 66 hours. The production was carried out either at a 10 L scale in a 22 L cellbag (GE Healthcare Bioscience, Pittsburgh, PA) or at a 20 L scale in a 50 L cellbag using WAVE-Bioreactor System 20/50 (GE Healthcare Bioscience). The infected cells were harvested by centrifugation at 2000 rpm for 20 min at 4° C. in a SORVALL® RC12BP centrifuge. The cell pellets was stored at −70° C. before protein was purified.
Purification of His-GST-TVMV-hRIPK1(1-324)
RIPK1 containing cell paste was resuspended in 50 mM Tris pH 7.5, 150 mM NaCl, 10 mM imidazole, 5% glycerol, 5 mM MgSO4, 1 mM TCEP, 25 U/ml Benzonase, and Complete Protease Inhibitor tablets (1/50 ml, Roche Diagnostics, Indianapolis, IN). The cells were lysed by nitrogen cavitation using an unstirred pressure vessel @ 525 PSI (Parr Instrument Company, Moline, IL). The suspension was clarified by centrifugation at 136,000×g for 40 min, at 4° C. The lysate was decanted from the pellet and passed through a 5 ml NiNTA Superflow cartridge (Qiagen, Valencia, CA) using an AKTA Pure (GE Healthcare). Column was eluted with 10 CV linear gradient into 50 mM Tris 7.5, 150 mM NaCl, 500 mM imidazole, 5% glycerol, 1 mM TCEP. Peak fractions were pooled and loaded directly onto 5 ml GSTrap 4B column (GE Healthcare). Column was washed with 50 mM Tris 7.0, 150 mM NaCl, […], 1 mM DTT and eluted in 10 CV linear gradient into 50 mM Tris 8.0, 150 mM NaCl, 20 mM reduced glutathione, 50% glycerol, 1 mM DTT. Fractions identified by SDS-PAGE as containing RIPK1 were pooled and concentrated using 30 kDa MWCO spin concentrators (Amicon Ultra-15, Millipore, Billerica, MA) and loaded onto a HiLoad 26/600 Superdex 200 column (GE Healthcare) equilibrated in 25 mM Tris 7.5, 150 mM NaCl, 2 mM TCEP, […]. The RTPK1 protein eluted as a dimer off the SEC column. The yield was ˜8 mg/L with a purity […] as determined by Coomassie stain SDS-PAGE gel analysis. […] Protein was aliquoted and stored at −80° C. Using these assays, the IC50 values of the following compounds were determined.
In general terms: In TR-FRET formats the signal depends on donor and acceptor labels being close together.

Test [2] has as its system MLKL phosphorylation in HT29-L23 human colorectal adenocarcinoma cells. In words: MLKL Phosphorylation High-Content Assay. Type of test: cell-based. The conditions noted are these: Homo sapiens, necroptosis induced with TNFα, SMAC mimetic and Z-VAD, 6 h, read-out: pMLKL (IC50). How it is done:
MLKL Phosphorylation High-Content Assay
HT29-L23 human colorectal adenocarcinoma cells were maintained in RPMI 1640 medium containing 10% heat-inactivated FBS, 1% Penicillin-Streptomycin and 10 mM HEPES. Cells were seeded at 2,000 cells/well in 384 well tissue culture-treated microplates (Greiner #781090-3B) and incubated at 37° C. (5% CO2/95% O2) for 2 d. On the day of the assay, the cells were treated with test compounds at final concentrations of 6.25 to 0.106 μM for 30 min at 37° C. (5% CO2/95% O2). Necroptopsis was induced using a mixture of human TNFα (35 ng/mL) (Peprotech #300-01A), SMAC mimetic (from US 2015/0322111 A1) (700 nM) and Z-VAD (140 nM) (BD pharmingen #51-6936). Following 6 h incubation at 37° C. (5% CO2/95% O2), the cells were fixed with 4% formaldehyde (ACROS 11969-0010) for 15 min at rt, then permeabilized with phosphate buffered saline (PBS) containing 0.2% Triton-X-100 for 10 min. MLKL phosphorylation was detected using anti-MLKL (phospho S358) antibody (Abcam #ab187091) (1:1000 dilution in Blocking Buffer [PBS supplemented with 0.1% BSA]) with ON incubation at 4° C. After washing three times in PBS, goat anti-rabbit Alexa-488 (1:1000 dilution) (Life Technologies, A1 1008) and Hoechst 33342 (Life Technologies, H3570) (1:2000 dilution) in Blocking Buffer were added for 1 h at rt. Following another three cycles of washes in PBS, the microplates were sealed, and cellular images were acquired in the Cellomics ArrayScan VTI high-content imager equipped with an X1 camera. Fluorescent images were taken using a 10× objective and the 386-23 BGRFRN_BGRFRN and 485-20 BGRFRN_BGRFRN filter sets, for nuclei and MLKL phosphorylation, respectively. The image sets were analyzed using the Compartmental Analysis Bioapplication software (Cellomics). The level of MLKL phosphorylation was quantified as MEAN_CircRingAvglntenRatio. The maximal inhibitory response was defined by the activity induced by Necls (CAS #: 852391-15-2, 6.25 μm). The IC50 value was defined as the concentration of compound that produces 50% of the maximal inhibition. The data were fitted using the 4-parameter logistic equation to calculate the IC50 and Ymax values.

Molecules are shown by their SMILES.

`CNC(=O)c1n[nH]c2cc(-c3nc(C(=O)NCC[C@@H](O)c4ccc(Cl)cc4)c(C)n3C)ccc12` [Example 33, (R)-6-(4-((3-(4-chlorophenyl)-3-hydroxypropyl)carbamoyl)-1,5-dimethyl-1H-imidazol-2-yl)-N-methyl-1H-indazole-3-carboxamide]: the IC50 (in general, the point on the concentration scale where inhibition reaches its midpoint) in test [1] was 570 nM; in test [2], 2200 nM.
Taken in the same sequence, the figures for `CNC(=O)c1n[nH]c2cc(-c3ncc(C(=O)NCC[C@@H](O)c4ccc(Cl)cc4)s3)ccc12` [Example 25, (R)-N-(3-(4-chlorophenyl)-3-hydroxypropyl)-2-(3-(methylcarbamoyl)-1H-indazol-6-yl)thiazole-5-carboxamide] were 280 nM and 1600 nM.
Taken in the same sequence, the figures for `CNC(=O)c1n[nH]c2cc(-c3ncc(C(=O)NCCC(C)c4ccccc4)s3)ccc12` (stereo not shown) [Example 24, 2-(3-(methylcarbamoyl)-1H-indazol-6-yl)-N-(3-phenylbutyl)thiazole-5-carboxamide] were 280 nM and 700 nM.
The matching figures for `CNC(=O)c1n[nH]c2cc(-c3csc(C(=O)NCc4cc(OC(F)(F)F)ccc4F)c3)ccc12` [Example 1, 6-(5-((2-fluoro-5-(trifluoromethoxy)benzyl)carbamoyl)thiophen-3-yl)-N-methyl-1H-indazole-3-carboxamide]: 6.8 nM and 21 nM.
With `CC(C)NC(=O)c1n[nH]c2cc(-c3csc(C(=O)NCC[C@@H](O)c4ccc(Cl)cc4)c3)ccc12` [Example 5, (R)-6-(5-((3-(4-chlorophenyl)-3-hydroxypropyl)carbamoyl)thiophen-3-yl)-N-isopropyl-1H-indazole-3-carboxamide], the values for the 50% inhibitory concentration (IC50) in test [1] and in test [2] were 800 nM and 1100 nM, respectively.
Take `CNC(=O)c1n[nH]c2cc(-c3nc(C(=O)NCC[C@H](O)c4ccc(Cl)cc4)cs3)ccc12` [Example 23, (S)-N-(3-(4-chlorophenyl)-3-hydroxypropyl)-2-(3-(methylcarbamoyl)-1H-indazol-6-yl)thiazole-4-carboxamide]: the IC50 in test [1] was 120 nM; in test [2], 1600 nM.
On to `CNC(=O)c1n[nH]c2cc(-c3nc(C(=O)NCC[C@@H](O)c4ccc(Cl)cc4)cs3)ccc12` [Example 22, (R)-N-(3-(4-chlorophenyl)-3-hydroxypropyl)-2-(3-(methylcarbamoyl)-1H-indazol-6-yl)thiazole-4-carboxamide], for which the concentration for half-maximal inhibition (IC50) in test [1] amounted to 330 nM; in test [2], 1200 nM.
The matching figures for `CNC(=O)c1n[nH]c2cc(-c3ccc(C(=O)NCc4cc(OC(F)(F)F)ccc4F)s3)ccc12` [Example 6, 6-(5-((2-fluoro-5-(trifluoromethoxy)benzyl)carbamoyl)thiophen-2-yl)-N-methyl-1H-indazole-3-carboxamide]: 31 nM and 56 nM.
The matching figures for `CNC(=O)c1n[nH]c2cc(-c3cc(C)c(C(=O)NCc4cc(OC(F)(F)F)ccc4F)s3)ccc12` [Example 10, 6-(5-((2-fluoro-5-(trifluoromethoxy)benzyl)carbamoyl)-4-methylthiophen-2-yl)-N-methyl-1H-indazole-3-carboxamide]: 2 nM and 1 nM.
As for `CNC(=O)c1n[nH]c2cc(-c3ccc(C(=O)NCC[C@H](O)c4ccc(Cl)cc4)s3)ccc12` [Example 8, (S)-6-(5-((3-(4-chlorophenyl)-3-hydroxypropyl)carbamoyl)thiophen-2-yl)-N-methyl-1H-indazole-3-carboxamide], the IC50 was 220 nM in test [1] and 6300 nM in test [2].
Regarding `CNC(=O)c1n[nH]c2cc(-c3nc(C(=O)NCc4cc(C(F)(F)F)ccc4F)c(C)n3C)ccc12` [Example 35, 6-(4-((2-fluoro-5-(trifluoromethyl)benzyl)carbamoyl)-1,5-dimethyl-1H-imidazol-2-yl)-N-methyl-1H-indazole-3-carboxamide], the half-inhibitory concentration (IC50) in test [1] was determined as 200 nM; in test [2], 890 nM.
